Test results published in article PMC11284788, “NN1213 – A Potent, Long-Acting, and Selective Analog of Human Amylin” (Journal of Medicinal Chemistry, 2024).
Where two headings read alike, the source gives them in different places. Numbered stars: 1 amine (or outer) side, 2 acyl side, 3 side chain; on linkers, the order of the positions; unused ones are H or OH. Bridge positions count the residues as written; N and C are the ends. Side chains are listed from the residue outwards. Peptide text beside a SMILES is read from it. * marks the point of attachment. C20 diacid = O=C(O)CCCCCCCCCCCCCCCCCCC(=O)*; γGlu = O=C(O)[C@H](CCC(=O)[*:2])N[*:1]

What was measured:
rat AMY3R = target: T1, rat AMY3R (Rattus norvegicus, UniProt P32214+Q9JJ73); test: cAMP FlashPlate assay, rat AMY3R; format: cell-based; conditions: for EC50: cAMP (rat receptor assay); for ratio rCTR/rAMY3R: ratio of cAMP EC50 values
T1 construct: expressed in transfected cells; host or cells: BHK tk-ts 13, transient co-transfection (FuGENE 6)
T1 sequence (P32214 25-479 isoform P32214-2 limits assumed): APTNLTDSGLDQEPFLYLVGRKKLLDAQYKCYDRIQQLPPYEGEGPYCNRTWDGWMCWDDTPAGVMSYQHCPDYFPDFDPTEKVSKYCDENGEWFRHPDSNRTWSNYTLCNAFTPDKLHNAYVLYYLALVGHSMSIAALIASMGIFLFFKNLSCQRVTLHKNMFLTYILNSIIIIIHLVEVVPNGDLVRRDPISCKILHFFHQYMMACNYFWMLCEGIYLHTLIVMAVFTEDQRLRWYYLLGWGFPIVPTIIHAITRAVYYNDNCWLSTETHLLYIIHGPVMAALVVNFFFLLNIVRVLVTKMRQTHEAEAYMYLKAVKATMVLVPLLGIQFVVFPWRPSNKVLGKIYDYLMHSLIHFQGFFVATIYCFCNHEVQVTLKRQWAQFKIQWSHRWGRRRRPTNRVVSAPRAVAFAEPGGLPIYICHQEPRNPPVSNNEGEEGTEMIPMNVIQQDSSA
T1 sequence (Q9JJ73 23-147 partner): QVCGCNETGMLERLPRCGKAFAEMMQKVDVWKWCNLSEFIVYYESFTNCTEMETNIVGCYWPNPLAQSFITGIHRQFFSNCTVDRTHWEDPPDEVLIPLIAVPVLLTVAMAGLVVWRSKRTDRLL

rat CTR = target: T2, rat CTR (Rattus norvegicus, UniProt P32214); test: cAMP FlashPlate assay, rat CTR; format: cell-based; conditions: cAMP (rat receptor assay)
T2 construct: expressed in transfected cells; host or cells: BHK tk-ts 13, transient (FuGENE 6)
T2 sequence (P32214 25-479 isoform P32214-2 limits assumed): T1 sequence (P32214 25-479 isoform P32214-2 limits assumed)

rCTR = target: T3, rCTR (Rattus norvegicus, UniProt P32214); test: scintillation proximity binding assay, rCTR membranes
T3 construct: expressed in transfected cells; host or cells: BHK tk-ts 13, transient (FuGENE 6)
T3 sequence (P32214 25-479 isoform P32214-2 limits assumed): T1 sequence (P32214 25-479 isoform P32214-2 limits assumed)
Experimental: The apparent binding affinities were determined using a scintillation proximity assay with beads from PerkinElmer and cell membranes containing the AMY3R or CTRs. […] Membranes were harvested and membranes were prepared and kept at −80 °C until use. The assay was performed in a 384-well Optiplate (PerkinElmer). Membranes were mixed with scintillation proximity assay beads in a 1:1 ratio. […] Samples were analyzed on a TopCounter (Packard). The IC50 values were calculated using GraphPad Prism. See Supporting Information S7: SAR Screening Assay Methods (Binding Assays (Human and Rat)) for more information.
Binding Assays (Human and Rat). Brief descriptions of the methods used to determine binding affinities for SAR analysis are described below. Curves and IC50 values were plotted and calculated in GraphPad Prism using nonlinear regression (one site binding competition analysis), with pIC50 values […]
values were used to calculate the binding affinity ratios in order to express the selectivity of compounds for the AMY3R versus the CTR.
CTR Binding Assay. The binding assay was performed using scintillation proximity assay (SPA) beads (RPNQ0001) from PerkinElmer and cell membranes containing either the hCTR or rCTR. BHK […]
Membranes were prepared in the following way: the cells were rinsed with PBS and incubated with Versene for approximately 5 min before harvesting. The cells were flushed with PBS and the cell-suspension was centrifuged for 5 min at 1000 rpm. Cells were homogenized (Ultra Turrax) in a buffer […]
containing 20 mM Na-HEPES and 0.1 mM EDTA (pH 7.4, buffer 2). The resulting pellet was re-suspended in buffer 2 and protein concentration was measured (BCA protein assay, Pierce). The homogenate was kept cold during the whole procedure. The membranes were stored at –80 °C until […]
The binding assay was performed in a 384-well Optiplate (PerkinElmer) in a total volume of 40 μL.
Membranes were mixed with SPA beads in a 1:1 ratio. […]
mg/well. Test compounds were dissolved in DMSO and further diluted in assay buffer (50 mM HEPES, pH 7.4, 1 mM CaCl2, 5 mM MgCl2, 0.1% ovalbumin, and 0.02% Tween-20).
Calcitonin (NEX422 PerkinElmer) was dissolved in assay buffer and added to the Optiplate at a final […]
prior to centrifugation (1500 rpm, 10 min). Samples were analyzed on TopCounter (Packard).

[1] = Tables S12 and S14, read-out: rAMY3R pEC50 (converted)
[2] = transiently transfected BHK tk-ts 13 cells, FlashPlate, 30 min room temperature, 2% HSA, read-out: rAMY3R EC50
[3] = Tables S12 and S14, read-out: rCTR pEC50 (converted)
[4] = transiently transfected BHK tk-ts 13 cells, FlashPlate, 30 min room temperature, 2% HSA, read-out: rCTR EC50
[5] = SPA binding assay, Tables S13 and S15
[6] = SPA binding assay, Tables S13 and S15, read-out: rCTR pIC50 (converted)
[7] = SPA, BHK cell membranes, 125I-Calcitonin 75 pM, 120 min 25 °C, read-out: rCTR IC50

Compound | EC50 (rat AMY3R; [1]) [µM] | EC50 (rat AMY3R; [2]) [µM] | ratio rCTR/rAMY3R (rat AMY3R) | EC50 (rat CTR; [3]) [µM] | EC50 (rat CTR; [4]) [µM] | rCTR pIC50 (rCTR; [5]) | IC50 (rCTR; [6]) [µM] | IC50 (rCTR; [7]) [µM]
CC[C@H](C)[C@H](NC(=O)[C@H](C)NC(=O)CNC(=O)[C@H](Cc1ccccc1)NC(=O)[C@H](CC(N)=O)NC(=O)[C@@H]1CCCN1C(=O)[C@H](CO)NC(=O)[C@H](CO)NC(=O)[C@H](Cc1c[nH]cn1)NC(=O)[C@H](CCCNC(=N)N)NC(=O)[C@H](CC(C)C)NC(=O)[C@H](Cc1ccccc1)NC(=O)[C@H](CC(N)=O)NC(=O)[C@H](C)NC(=O)[C@H](CC(C)C)NC(=O)[C@H](CCCNC(=N)N)NC(=O)[C@H](CCC(N)=O)NC(=O)[C@@H](NC(=O)[C@H](C)NC(=O)[C@@H]1CSSC[C@H](NC(=O)[C@H](CCCCN)NC(=O)CC[C@H](NC(=O)CCCCCCCCCCCCCCCCCCC(=O)O)C(=O)O)C(=O)N[C@@H](CC(N)=O)C(=O)N[C@@H]([C@@H](C)O)C(=O)N[C@@H](C)C(=O)N[C@@H]([C@@H](C)O)C(=O)N1)[C@@H](C)O)C(=O)N1CCC[C@H]1C(=O)N[C@@H](CO)C(=O)N[C@@H](CO)C(=O)N[C@H](C(=O)N[C@@H](CC(N)=O)C(=O)N[C@H](C(=O)NCC(=O)N[C@@H](CO)C(=O)N[C@@H](CCCCN)C(=O)N[C@H](C(=O)N[C@@H](Cc1ccc(O)cc1)C(N)=O)[C@@H](C)O)C(C)C)[C@@H](C)O [Peptide 13] | 0.000603 | 0.000599 | 50 | 0.0302 | 0.0304 | 7.05 | – | –
CC[C@H](C)[C@H](NC(=O)[C@H](C)NC(=O)CNC(=O)[C@H](Cc1ccccc1)NC(=O)[C@H](CC(N)=O)NC(=O)[C@@H]1CCCN1C(=O)[C@H](CO)NC(=O)[C@H](CO)NC(=O)[C@H](Cc1c[nH]cn1)NC(=O)[C@H](CCCNC(=N)N)NC(=O)[C@H](CC(C)C)NC(=O)[C@H](Cc1ccccc1)NC(=O)[C@H](CC(N)=O)NC(=O)[C@H](C)NC(=O)[C@H](CC(C)C)NC(=O)[C@H](CCCNC(=N)N)NC(=O)[C@H](CCC(N)=O)NC(=O)[C@@H](NC(=O)[C@H](C)NC(=O)[C@@H]1CSSC[C@H](NC(=O)[C@@H](N)CCCCNC(=O)CC[C@H](NC(=O)CCCCCCCCCCCCCCCCCCC(=O)O)C(=O)O)C(=O)N[C@@H](CC(N)=O)C(=O)N[C@@H]([C@@H](C)O)C(=O)N[C@@H](C)C(=O)N[C@@H]([C@@H](C)O)C(=O)N1)[C@@H](C)O)C(=O)N1CCC[C@H]1C(=O)N[C@@H](CO)C(=O)N[C@@H](CO)C(=O)N[C@H](C(=O)N[C@@H](CC(N)=O)C(=O)N[C@H](C(=O)NCC(=O)N[C@@H](CO)C(=O)N[C@@H](CCCCN)C(=O)N[C@H](C(=O)N[C@@H](Cc1ccc(O)cc1)C(N)=O)[C@@H](C)O)C(C)C)[C@@H](C)O [Peptide 14] | 0.000759 | 0.000754 | 49 | 0.0372 | 0.0372 | – | 0.0562 | 0.0556
CC[C@H](C)[C@H](NC(=O)[C@H](C)NC(=O)CNC(=O)[C@H](Cc1ccccc1)NC(=O)[C@H](CC(N)=O)NC(=O)[C@@H]1CCCN1C(=O)[C@H](CO)NC(=O)[C@H](CO)NC(=O)[C@H](Cc1c[nH]cn1)NC(=O)[C@H](CCCNC(=N)N)NC(=O)[C@H](CC(C)C)NC(=O)[C@H](Cc1ccccc1)NC(=O)[C@H](CC(N)=O)NC(=O)[C@H](C)NC(=O)[C@H](CC(C)C)NC(=O)[C@H](CCCNC(=N)N)NC(=O)[C@H](CCC(N)=O)NC(=O)[C@@H](NC(=O)[C@H](C)NC(=O)[C@@H]1CSSC[C@H](NC(=O)[C@H](CCCCN)NC(=O)COCCOCCNC(=O)COCCOCCNC(=O)CC[C@H](NC(=O)CCCCCCCCCCCCCCCCCCC(=O)O)C(=O)O)C(=O)N[C@@H](CC(N)=O)C(=O)N[C@@H]([C@@H](C)O)C(=O)N[C@@H](C)C(=O)N[C@@H]([C@@H](C)O)C(=O)N1)[C@@H](C)O)C(=O)N1CCC[C@H]1C(=O)N[C@@H](CO)C(=O)N[C@@H](CO)C(=O)N[C@H](C(=O)N[C@@H](CC(N)=O)C(=O)N[C@H](C(=O)NCC(=O)N[C@@H](CO)C(=O)N[C@@H](CC(N)=O)C(=O)N[C@H](C(=O)N[C@@H](Cc1ccc(O)cc1)C(N)=O)[C@@H](C)O)C(C)C)[C@@H](C)O [Peptide 10] | 0.00178 | 0.00179 | 79 | 0.141 | 0.142 | 6.46 | – | –
CC[C@H](C)[C@H](NC(=O)[C@H](C)NC(=O)CNC(=O)[C@H](Cc1ccccc1)NC(=O)[C@H](CC(N)=O)NC(=O)[C@@H]1CCCN1C(=O)[C@H](CO)NC(=O)[C@H](CO)NC(=O)[C@H](Cc1c[nH]cn1)NC(=O)[C@H](CCCNC(=N)N)NC(=O)[C@H](CC(C)C)NC(=O)[C@H](Cc1ccccc1)NC(=O)[C@H](CC(N)=O)NC(=O)[C@H](C)NC(=O)[C@H](CC(C)C)NC(=O)[C@H](CCCNC(=N)N)NC(=O)[C@H](CCC(N)=O)NC(=O)[C@@H](NC(=O)[C@H](C)NC(=O)[C@@H]1CSSC[C@H](NC(=O)[C@H](CCCCN)NC(=O)CC[C@H](NC(=O)CCCCCCCCCCCCCCCCCCC(=O)O)C(=O)O)C(=O)N[C@@H](CC(N)=O)C(=O)N[C@@H]([C@@H](C)O)C(=O)N[C@@H](C)C(=O)N[C@@H]([C@@H](C)O)C(=O)N1)[C@@H](C)O)C(=O)N1CCC[C@H]1C(=O)N[C@@H](CO)C(=O)N[C@@H](CO)C(=O)N[C@H](C(=O)N[C@@H](CC(N)=O)C(=O)N[C@H](C(=O)NCC(=O)N[C@@H](Cc1c[nH]cn1)C(=O)N[C@@H](CC(N)=O)C(=O)N[C@H](C(=O)N[C@@H](Cc1ccc(O)cc1)C(N)=O)[C@@H](C)O)C(C)C)[C@@H](C)O [Peptide 17] | 0.000933 | 0.000926 | 18 | 0.017 | 0.0168 | – | 0.0501 | 0.0498
CC[C@H](C)[C@H](NC(=O)[C@@H]1CCCN1C(=O)CNC(=O)[C@H](Cc1ccccc1)NC(=O)[C@H](CC(N)=O)NC(=O)[C@@H]1CCCN1C(=O)[C@H](CO)NC(=O)[C@H](CO)NC(=O)[C@H](Cc1c[nH]cn1)NC(=O)[C@H](CCCNC(=N)N)NC(=O)[C@H](CC(C)C)NC(=O)[C@H](Cc1ccccc1)NC(=O)[C@H](CC(=O)O)NC(=O)[C@H](C)NC(=O)[C@H](CC(C)C)NC(=O)[C@H](CCCNC(=N)N)NC(=O)[C@H](CCC(N)=O)NC(=O)[C@@H](NC(=O)[C@H](C)NC(=O)[C@@H]1CSSC[C@H](NC(=O)[C@@H](N)CCCCNC(=O)CC[C@H](NC(=O)CC[C@H](NC(=O)CCCCCCCCCCCCCCCCCCC(=O)O)C(=O)O)C(=O)O)C(=O)N[C@@H](CC(N)=O)C(=O)N[C@@H]([C@@H](C)O)C(=O)N[C@@H](C)C(=O)N[C@@H]([C@@H](C)O)C(=O)N1)[C@@H](C)O)C(=O)N[C@@H](CC(C)C)C(=O)N[C@@H](CO)C(=O)N[C@@H](CO)C(=O)N[C@H](C(=O)N[C@@H](CC(N)=O)C(=O)N[C@H](C(=O)NCC(=O)N[C@@H](CO)C(=O)N[C@@H](CC(=O)O)C(=O)N[C@H](C(=O)N[C@@H](Cc1ccc(O)cc1)C(N)=O)[C@@H](C)O)C(C)C)[C@@H](C)O [Peptide 3] (H-K([γGlu-γGlu-C20 diacid])CNTATCATQRLADFLRHSSPNFGPILSSTNVGSDTY-NH2; disulfide 2-7) | – | – | – | – | – | – | 0.355 | 0.356
